Here are results for one compound from patent publication US12624004B2 (Fudan University, priority 2019, dated 2026).

Molecules are shown by their SMILES.

The test system of this assay is Female mice. Briefly: In vivo hot plate method analgesia test. An outline of the steps: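 Female mice (~20 g) on a 55° C hot plate, hindpaw response latency as pain threshold (pre-screen 5–30 s, 60 s cut-off). Latencies at 15, 30, 60 and 120 min after intraperitoneal dosing. %MPE = (post−pre latency)/(60−pre)×100, ED50 derived from %MPE.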
Background: In hot-plate and tail-flick tests a longer latency is read as antinociception.

Turning to `COc1cccc(C2(O)CCCCC2CN(C)C)c1` (stereo not shown) [Tramadol, reference compound], the “analgesic effect” value runs as follows: (Table 1-2, hot plate, 5 mg/kg dose) “no analgesic effect”; (Table 2-2, hot plate, at 5 mg/kg or 50 mg/kg dose) “no analgesic effect”; (Table 3-2, hot plate, @10 mg/kg) “no effective”; (Table 4-2, hot plate, 10 mg/kg dose) “no analgesic effect”; (Table 5-2, hot plate, 10 mg/kg dose) “no analgesic effect”. Besides, where the note is “Table 1-2, hot plate, 50 mg/kg dose”, the “Maximum percentage effective analgesic (% MPE)” value was found to be 64.5%. Moreover, the “% MPE” value (Table 2-2, hot plate, tramadol, dose of this value not clearly printed) is on record as 64.5%; the “% MPE” value (Table 3-2, hot plate, @50 mg/kg) amounted to 64.5%; the “% MPE” value (Table 4-2, hot plate, 50 mg/kg dose) came to 64.5%. Besides, the “Maximum percentage effective analgesia (% MPE)” value (Table 5-2, hot plate, 50 mg/kg dose) is 64.5%.
